According to patent US9783541B2, “5′-nucleotidase inhibitors and therapeutic uses thereof” (Centre National de la Recherche Scientifique-CNRS, priority 2013, dated 2017):
Where two headings read alike, the source gives them in different places.

Tests used:
[1] = tested on: RL human follicular lymphoma cell line; experiment: cytotoxicity on RL cancer line (MTT, IC50); details: for IC50: read-out: RL cancer line IC50, 72 h incubation, MTT
Method: (§2) After 72 h of incubation, the living cells are quantified using the MTT reagent.
(§3) The inhibitory concentration 50 (IC50) and the combination index (CI95) are calculated with the CompuSyn software 1.0 (ComboSyn, Inc., USA).

[2] = target: purified recombinant cN-II enzyme (Homo sapiens, UniProt P49902); experiment: cN-II inhibition test (inorganic phosphate from IMP, Malachite green); assay type: biochemical; design: key to Inhibition strength (Strong/Medium/Weak): Strong; Medium; Weak
purified recombinant cN-II enzyme, sequence (P49902 whole entry): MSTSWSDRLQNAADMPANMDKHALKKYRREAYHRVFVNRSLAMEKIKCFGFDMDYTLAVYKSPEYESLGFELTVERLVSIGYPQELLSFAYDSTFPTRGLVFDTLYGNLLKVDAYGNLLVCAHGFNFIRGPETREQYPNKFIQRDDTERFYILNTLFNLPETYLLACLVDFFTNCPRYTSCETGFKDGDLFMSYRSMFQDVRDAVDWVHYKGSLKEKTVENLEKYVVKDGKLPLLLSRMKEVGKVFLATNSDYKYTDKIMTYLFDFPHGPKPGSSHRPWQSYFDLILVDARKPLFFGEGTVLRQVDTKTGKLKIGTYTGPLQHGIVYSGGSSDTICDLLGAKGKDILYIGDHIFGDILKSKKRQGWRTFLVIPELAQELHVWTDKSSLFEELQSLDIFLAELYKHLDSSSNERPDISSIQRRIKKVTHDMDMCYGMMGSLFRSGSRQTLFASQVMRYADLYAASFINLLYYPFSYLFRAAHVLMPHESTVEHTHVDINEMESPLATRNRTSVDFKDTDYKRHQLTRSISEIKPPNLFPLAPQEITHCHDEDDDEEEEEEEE
Method: The activity of cN-II is measured in vitro by following the appearance of the inorganic phosphate produced during the enzymatic reaction. The purified recombinant cN-II enzyme is used in the presence of its preferential substrate, inosine 5′-monophosphate (IMP). During the hydrolysis reaction, inosine and inorganic phosphate are produced from the IMP. This phosphate is then assayed by means of a colorimetric method using Malachite green (kit sold by the company Gentaur): the reading of absorbence at 630 nm makes it possible to quantify the inorganic phosphate.
The reagents used are: 50 mM imidazole buffer, pH=6.5, 500 mM NaCl and 10 mM MgCl2. The enzyme (cN-II) concentration is 0.1 μM and the IMP concentration is 100 μM.
A phosphate concentration range is performed in parallel in order to quantify the phosphate produced during the reaction.

cells of AML patients = experiment: ex vivo cytotoxicity, Annexin V / propidium iodide flow cytometry, AML patient cells; assay type: cell-based, human; details: 100 μM, 24 hours
Method: (§1) Peripheral blood was recovered from patients suffering from chronic […] leukemia (LLC) or from acute myeloid leukemia (AML) in heparinized tubes. […] The cells having experienced an effect of the incubations are labeled with Annexin V alone or with propidium iodide (see FIG. 6).

RL cancer line = experiment: Synergy MTT test with cytotoxic nucleoside analogs; assay type: cell-based, Human; details: for Synergy MTT with cladribine / Synergy MTT with clofarabine / Synergy MTT with fludarabine: RL cells, 72 h, constant ratio, CI95; for Synergy MTT with cladribine: partner cladribine; for Synergy MTT with clofarabine: partner clofarabine; for Synergy MTT with fludarabine: partner fludarabine; for synergistic effect with at least one of the three anticancer agents: cladribine, clofarabine, fludarabine
Method: as §2, §3
The CI95 is calculated according to the method of Chou and Talalay^3 with a formula which takes into account the concentrations of the two compounds and the fraction affected at these concentrations (i.e. the dead cells).

cells of CLL patients = experiment: ex vivo cytotoxicity, Annexin V / propidium iodide flow cytometry, CLL patient cells; assay type: cell-based, human; details: 10 μM, 24 hours
Method: as §1

[3] = 200 μM compound, 0.1 μM cN-II, 100 μM IMP, pH 6.5, 37° C.

In the case of “(naphthalene-2-carbonylamino-9H-purin-6-yl)methylphosphonic acid [(32)]”, the IC50 [1] is reported as 145 µM, the “Inhibition cN-II in vitro (200 μM)” value [2, 3] is reported as 10% and the “Inhibition strength (Strong/Medium/Weak)” value ([2]; cN-II) is reported as “W”.

Nc1ccn([C@@H]2O[C@H](CO)[C@@H](O)[C@@H]2O)c(=O)n1 [cytarabine] was tested, and the “Annexin V labeling, AML samples, mean over the five samples” value (cells of AML patients) was 44.5%.

For O=C(Nc1ncnc2c1ncn2COCc1ccccc1)c1cccc(-c2ccccc2)c1 [(22), 9-[(phenylmethoxy)methyl]-9H-purin-6-yl-[1,1′-biphenyl]-3-carboxamide], the IC50 [1] was 188 µM, the “Inhibition cN-II in vitro (200 μM)” value [2, 3] was 43 +/− 7% and the “Inhibition strength (Strong/Medium/Weak)” value ([2]; cN-II) was “M”.

In the case of “9-(phenylmethyl)-9H-purin-6-yl-[1,1′-biphenyl]-3-carboxamide [(20)]”, the “Synergy MTT with cladribine” value (RL cancer line) is reported as “Antagonistic with (values above 1.1 indicate antagonism)”, the “Synergy MTT with clofarabine” value (RL cancer line) is reported as “Antagonistic with (values above 1.1 indicate antagonism)” and the “Synergy MTT with fludarabine” value (RL cancer line) is reported as “Synergy with (CI95 values below 0.9 indicate synergy between the two compounds)”. For the same compound, the “synergistic effect with at least one of the three anticancer agents” value (from here on “synergistic effect with at least one”) (RL cancer line) was “synergistic effect”, the “Inhibition strength (Strong/Medium/Weak)” value [2] was “S” and the “Inhibition cN-II in vitro (200 μM)” value ([2]; pH 6.5) was 58 +/−19%.

O=C(Nc1ncnc2ncn(Cc3ccccc3)c12)c1cccc(-c2ccccc2)c1 [(19)] was tested, and the IC50 [1] was 60 µM, the “Synergy MTT with cladribine” value (RL cancer line) was “Synergy with (CI95 values below 0.9 indicate synergy between the two compounds)” and the “Synergy MTT with fludarabine” value (RL cancer line) was “Synergy with (CI95 values below 0.9 indicate synergy between the two compounds)”. For the same compound, the “synergistic effect with at least one” value (RL cancer line) was “synergistic effect”, the “Inhibition cN-II in vitro (200 μM)” value [2, 3] was 68 +/− 15% and the “Inhibition strength (Strong/Medium/Weak)” value ([2]; cN-II) was “S”.

With O=S(=O)(Nc1ncnc2[nH]cnc12)c1ccc(-c2ccccc2)cc1 [(33), 9H-purin-6-yl-[1,1′-biphenyl]-4-sulfonamide] the IC50 [1] was 195 µM, the “Inhibition cN-II in vitro (200 μM)” value [2, 3] was 70 +/− 5% and the “Inhibition strength (Strong/Medium/Weak)” value ([2]; cN-II) was “S”.

In the case of Nc1nc(F)nc2c1ncn2[C@@H]1O[C@H](CO)[C@@H](O)[C@@H]1O [fludarabine], the “Annexin V labeling, CLL samples” value (cells of CLL patients) is reported as 45.8%.

“(naphthalene-1-carbonylamino-9H-purin-6-yl)methylphosphonic acid [(31)]” was tested, and the IC50 [1] was 250 µM, the “Inhibition cN-II in vitro (200 μM)” value [2, 3] was 10% and the “Inhibition strength (Strong/Medium/Weak)” value ([2]; cN-II) was “W”.

With O=C(Nc1ncnc2ncn(COCc3ccccc3)c12)c1cccc(-c2ccccc2)c1 [(21)] the “intrinsic cytotoxic activity, IC50 values” ([1]; cell model used (RL)) was “a few micromolar to a few tens of micromolar”, the IC50 [1] was 36 µM and the “Synergy MTT with cladribine” value (RL cancer line) was “Synergy with (CI95 values below 0.9 indicate synergy between the two compounds)”. For the same compound, the “Synergy MTT with clofarabine” value (RL cancer line) was “Synergy with (CI95 values below 0.9 indicate synergy between the two compounds)”, the “Synergy MTT with fludarabine” value (RL cancer line) was “Additive with (values between 0.9 and 1.1 indicate additivity)” and the “synergistic effect with at least one” value (RL cancer line) was “synergistic effect”. The “Inhibition cN-II in vitro (200 μM)” value [2, 3] was 50 +/− 2% and the “Inhibition strength (Strong/Medium/Weak)” value ([2]; cN-II) was “M”.
